Peptide text beside a SMILES is read from it. * marks the point of attachment. C16 diacid = O=C(O)CCCCCCCCCCCCCCC(=O)*
Columns and labels:
[1] = molecular target: T1, human GLP‐2R (Homo sapiens, UniProt O95838); experiment: cAMP accumulation, inhibition of GLP‐2‐induced activation
T1 sequence (O95838 1-553): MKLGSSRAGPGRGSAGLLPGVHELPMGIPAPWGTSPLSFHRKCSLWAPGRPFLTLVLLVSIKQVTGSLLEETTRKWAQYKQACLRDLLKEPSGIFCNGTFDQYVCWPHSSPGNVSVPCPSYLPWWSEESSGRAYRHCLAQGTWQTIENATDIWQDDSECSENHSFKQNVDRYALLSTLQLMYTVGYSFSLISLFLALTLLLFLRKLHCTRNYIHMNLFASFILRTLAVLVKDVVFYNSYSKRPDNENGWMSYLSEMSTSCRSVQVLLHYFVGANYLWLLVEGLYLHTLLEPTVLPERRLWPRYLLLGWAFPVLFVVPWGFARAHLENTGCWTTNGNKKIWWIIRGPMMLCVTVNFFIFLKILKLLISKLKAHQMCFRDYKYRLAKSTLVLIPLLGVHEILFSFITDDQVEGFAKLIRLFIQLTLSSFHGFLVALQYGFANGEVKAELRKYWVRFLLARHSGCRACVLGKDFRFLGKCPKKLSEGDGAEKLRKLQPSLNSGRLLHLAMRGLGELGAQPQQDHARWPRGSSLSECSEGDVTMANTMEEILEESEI

[2] = molecular target: T2, human GLP‐1R (Homo sapiens, UniProt P43220); experiment: cAMP accumulation, inhibition of GLP‐1‐mediated response (selectivity)
T2 sequence (P43220 24-463): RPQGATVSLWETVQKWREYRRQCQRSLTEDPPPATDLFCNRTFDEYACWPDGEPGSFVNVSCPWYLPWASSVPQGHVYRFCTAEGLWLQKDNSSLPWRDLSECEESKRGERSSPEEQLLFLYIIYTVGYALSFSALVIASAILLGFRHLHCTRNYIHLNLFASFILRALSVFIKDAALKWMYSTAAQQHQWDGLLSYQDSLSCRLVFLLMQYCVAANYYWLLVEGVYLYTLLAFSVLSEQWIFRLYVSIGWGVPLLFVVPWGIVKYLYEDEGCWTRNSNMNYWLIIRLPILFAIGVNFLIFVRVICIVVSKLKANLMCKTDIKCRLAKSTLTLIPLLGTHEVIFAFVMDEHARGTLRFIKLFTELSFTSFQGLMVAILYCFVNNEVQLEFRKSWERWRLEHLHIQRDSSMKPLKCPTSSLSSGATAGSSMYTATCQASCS

[3] = molecular target: T2, human GLP‐1R; experiment: cAMP accumulation, agonism (selectivity)

IC50 [1]: 11.7 nM
Inhibition of GLP‐2‐induced cAMP at the human GLP‐2R ([1]; at 1 μM peptide (highest tested concentration), COS‐7 cells): 95%
IC50 [2]: 79 nM
inhibition at 1 µM ([2]; COS-7, read-out: Inhibition of GLP‐1‐mediated cAMP response at the human GLP‐1R): 41%
EC50 [3]: 2.5 nM
Efficacy of GLP‐1R activation ([3]; COS‐7 cells, human GLP‐1R, cAMP, 1 μM stimulation, n = 3 in duplicate): 16%
SMILES: CC[C@H](C)[C@H](NC(=O)[C@H](Cc1ccccc1)NC(=O)[C@H](CC(=O)O)NC(=O)[C@H](CCCNC(=N)N)NC(=O)[C@H](C)NC(=O)[C@H](C)NC(=O)[C@H](CC(C)C)NC(=O)[C@H](CC(N)=O)NC(=O)[C@H](CC(=O)O)NC(=O)[C@H](CC(C)C)NC(=O)[C@@H](NC(=O)[C@@H](NC(=O)[C@H](CC(N)=O)NC(=O)[C@H](CCSC)NC(=O)[C@H](CCC(=O)O)NC(=O)[C@H](CC(=O)O)NC(=O)[C@H](CO)NC(=O)[C@H](Cc1ccccc1)NC(=O)[C@H](CO)NC(=O)CNC(=O)CCCCCCCCCCCCCCC(=O)O)[C@@H](C)O)[C@@H](C)CC)C(=O)N[C@@H](CC(N)=O)C(=O)N[C@@H](Cc1c[nH]c2ccccc12)C(=O)N[C@@H](CC(C)C)C(=O)N[C@H](C(=O)N[C@@H](CCC(N)=O)C(=O)N[C@H](C(=O)N[C@@H](CCCCN)C(=O)N[C@H](C(=O)N[C@H](C(=O)N[C@@H](CC(=O)O)C(=O)O)[C@@H](C)O)[C@@H](C)CC)[C@@H](C)O)[C@@H](C)CC [GLP‐2(4‐33)(C16‐diacid/4)] ({C16 diacid}-GSFSDEMNTILDNLAARDFINWLIQTKITD-OH)
